Test results: ChEMBL document CHEMBL1130065, “Dual inhibition of human leukocyte elastase and lipid peroxidation: in vitro and in vivo activities of azabicyclo[2.2.2]octane and perhydroindole derivatives” (J Med Chem, 1997); call rule not given here

Experiments:
[1] = molecular target: T1, Neutrophil elastase (Homo sapiens) (UniProt P08246); experiment: Percentage inhibition of HLE induced hemorrhage in the hamster lung at 3 hours; format: functional; design: concentration or dose not given beside the values; details: concentration not given here
T1 sequence (whole entry): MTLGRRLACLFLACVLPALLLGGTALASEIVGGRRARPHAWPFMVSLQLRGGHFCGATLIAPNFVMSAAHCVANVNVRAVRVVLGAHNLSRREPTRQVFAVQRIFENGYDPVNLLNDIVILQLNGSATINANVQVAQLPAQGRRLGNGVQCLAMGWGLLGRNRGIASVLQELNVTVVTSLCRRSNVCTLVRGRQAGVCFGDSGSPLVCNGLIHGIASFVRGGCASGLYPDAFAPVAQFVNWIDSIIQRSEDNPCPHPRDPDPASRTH

Rattus norvegicus [2] = organism: Rattus norvegicus; experiment: Inhibitory concentration against ferric ascorbate-induced lipid peroxidation from rat liver microsomal preparation; format: functional
[3] = molecular target: T1, Neutrophil elastase (Homo sapiens); experiment: Percentage inhibition of HLE induced hemorrhage in the hamster lung at 6 hours; format: functional, tissue-based; details: concentration not given here
[4] = molecular target: T1, Neutrophil elastase (Homo sapiens); experiment: Percentage inhibition of HLE induced hemorrhage in the hamster lung at 24 hours; format: functional, tissue-based; details: concentration not given here
Neutrophil elastase = molecular target: T2, Neutrophil elastase (Homo sapiens, UniProt P08246); experiment: Inhibitory concentration against Human Leukocyte Elastase from human sputum
T2 sequence (P08246 whole entry): T1 sequence (whole entry)

[5] = molecular target: T1, Neutrophil elastase (Homo sapiens); experiment: Percentage inhibition of HLE induced hemorrhage in the hamster lung at 18 hours; format: functional, tissue-based; details: concentration not given here
Rattus norvegicus [6] = organism: Rattus norvegicus
[7] = molecular target: T1, Neutrophil elastase (Homo sapiens); experiment: Percentage inhibition of HLE induced hemorrhage in the hamster lung at 48 hours; format: functional, tissue-based; details: concentration not given here
Stromelysin-1 = Stromelysin-1 (Homo sapiens, UniProt P08254); experiment: The concentration required to achieve 50% inhibition against Matrix metalloprotease-3
Sequence of Stromelysin-1 (P08254 whole entry): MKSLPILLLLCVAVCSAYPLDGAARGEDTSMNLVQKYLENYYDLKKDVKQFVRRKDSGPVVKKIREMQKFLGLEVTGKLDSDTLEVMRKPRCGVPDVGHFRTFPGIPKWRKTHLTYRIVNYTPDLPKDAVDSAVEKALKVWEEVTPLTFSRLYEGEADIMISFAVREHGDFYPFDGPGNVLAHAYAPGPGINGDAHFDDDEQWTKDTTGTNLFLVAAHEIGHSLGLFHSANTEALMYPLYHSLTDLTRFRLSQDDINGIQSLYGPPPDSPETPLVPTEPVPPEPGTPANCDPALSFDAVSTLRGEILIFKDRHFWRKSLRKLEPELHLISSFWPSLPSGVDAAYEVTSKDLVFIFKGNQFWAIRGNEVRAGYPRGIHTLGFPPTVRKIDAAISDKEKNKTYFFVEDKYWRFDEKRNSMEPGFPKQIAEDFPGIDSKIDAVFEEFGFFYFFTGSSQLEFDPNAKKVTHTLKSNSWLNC

Prolyl endopeptidase = molecular target: T3, Prolyl endopeptidase (Homo sapiens, UniProt P48147); experiment: The concentration required to achieve 50% inhibition against prolyl endopeptidase
T3 sequence (P48147 whole entry): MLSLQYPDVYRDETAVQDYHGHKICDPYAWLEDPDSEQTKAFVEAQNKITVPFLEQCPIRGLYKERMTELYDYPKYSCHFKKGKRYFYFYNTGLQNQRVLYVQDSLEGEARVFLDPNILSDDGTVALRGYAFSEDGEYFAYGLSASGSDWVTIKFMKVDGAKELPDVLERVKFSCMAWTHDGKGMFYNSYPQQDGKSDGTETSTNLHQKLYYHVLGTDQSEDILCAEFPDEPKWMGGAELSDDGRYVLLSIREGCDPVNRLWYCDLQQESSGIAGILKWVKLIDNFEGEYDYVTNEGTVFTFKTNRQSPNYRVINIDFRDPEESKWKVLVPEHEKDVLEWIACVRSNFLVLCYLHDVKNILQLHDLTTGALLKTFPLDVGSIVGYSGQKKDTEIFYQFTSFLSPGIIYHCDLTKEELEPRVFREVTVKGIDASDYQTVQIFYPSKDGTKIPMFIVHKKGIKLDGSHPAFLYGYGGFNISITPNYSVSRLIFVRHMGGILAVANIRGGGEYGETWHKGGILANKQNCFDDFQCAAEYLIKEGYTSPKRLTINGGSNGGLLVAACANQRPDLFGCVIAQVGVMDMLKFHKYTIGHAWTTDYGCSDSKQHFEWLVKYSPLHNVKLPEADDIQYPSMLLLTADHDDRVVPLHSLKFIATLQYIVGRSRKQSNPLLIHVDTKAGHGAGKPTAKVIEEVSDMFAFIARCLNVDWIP

[8] = molecular target: Matrix metalloproteinase-9 (Homo sapiens, UniProt P14780); experiment: The concentration required to achieve 50% inhibition against Matrix metalloprotease-9
Sequence of Matrix metalloproteinase-9 (P14780 whole entry): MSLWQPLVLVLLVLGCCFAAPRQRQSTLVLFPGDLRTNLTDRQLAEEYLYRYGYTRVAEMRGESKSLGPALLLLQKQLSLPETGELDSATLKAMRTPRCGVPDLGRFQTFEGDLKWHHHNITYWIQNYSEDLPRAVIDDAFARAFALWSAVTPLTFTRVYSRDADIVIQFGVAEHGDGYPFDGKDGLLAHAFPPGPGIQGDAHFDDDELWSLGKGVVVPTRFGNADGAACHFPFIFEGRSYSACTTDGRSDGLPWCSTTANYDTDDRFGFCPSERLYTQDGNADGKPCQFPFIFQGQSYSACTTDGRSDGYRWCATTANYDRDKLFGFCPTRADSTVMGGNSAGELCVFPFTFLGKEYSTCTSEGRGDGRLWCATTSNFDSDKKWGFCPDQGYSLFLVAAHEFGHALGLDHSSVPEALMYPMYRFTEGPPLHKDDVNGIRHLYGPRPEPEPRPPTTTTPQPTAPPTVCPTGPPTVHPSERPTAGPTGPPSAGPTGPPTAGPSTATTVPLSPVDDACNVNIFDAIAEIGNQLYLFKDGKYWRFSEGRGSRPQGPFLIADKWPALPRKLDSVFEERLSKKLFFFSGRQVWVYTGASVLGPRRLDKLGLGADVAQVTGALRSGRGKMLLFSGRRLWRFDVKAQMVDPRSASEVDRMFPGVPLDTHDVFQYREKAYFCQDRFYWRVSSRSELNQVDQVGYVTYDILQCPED

Interstitial collagenase = molecular target: T4, Interstitial collagenase (Homo sapiens, UniProt P03956); experiment: The concentration required to achieve 50% inhibition against Matrix metalloprotease-1
T4 sequence (P03956 whole entry): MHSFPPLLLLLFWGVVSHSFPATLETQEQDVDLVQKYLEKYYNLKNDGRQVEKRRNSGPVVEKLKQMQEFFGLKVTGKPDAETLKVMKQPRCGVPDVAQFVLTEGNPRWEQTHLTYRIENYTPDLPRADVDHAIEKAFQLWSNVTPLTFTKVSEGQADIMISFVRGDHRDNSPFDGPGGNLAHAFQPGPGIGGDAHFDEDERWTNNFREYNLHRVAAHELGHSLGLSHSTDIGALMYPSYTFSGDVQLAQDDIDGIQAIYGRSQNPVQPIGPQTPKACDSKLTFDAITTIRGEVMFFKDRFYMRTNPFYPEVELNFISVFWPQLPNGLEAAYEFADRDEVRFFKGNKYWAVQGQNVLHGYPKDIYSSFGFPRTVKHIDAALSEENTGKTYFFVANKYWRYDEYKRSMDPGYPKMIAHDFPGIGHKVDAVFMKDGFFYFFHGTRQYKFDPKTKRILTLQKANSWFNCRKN

[9] = molecular target: 72 kDa type IV collagenase (Homo sapiens, UniProt P08253); experiment: The concentration required to achieve 50% inhibition against Matrix metalloprotease-2
Sequence of 72 kDa type IV collagenase (P08253 whole entry): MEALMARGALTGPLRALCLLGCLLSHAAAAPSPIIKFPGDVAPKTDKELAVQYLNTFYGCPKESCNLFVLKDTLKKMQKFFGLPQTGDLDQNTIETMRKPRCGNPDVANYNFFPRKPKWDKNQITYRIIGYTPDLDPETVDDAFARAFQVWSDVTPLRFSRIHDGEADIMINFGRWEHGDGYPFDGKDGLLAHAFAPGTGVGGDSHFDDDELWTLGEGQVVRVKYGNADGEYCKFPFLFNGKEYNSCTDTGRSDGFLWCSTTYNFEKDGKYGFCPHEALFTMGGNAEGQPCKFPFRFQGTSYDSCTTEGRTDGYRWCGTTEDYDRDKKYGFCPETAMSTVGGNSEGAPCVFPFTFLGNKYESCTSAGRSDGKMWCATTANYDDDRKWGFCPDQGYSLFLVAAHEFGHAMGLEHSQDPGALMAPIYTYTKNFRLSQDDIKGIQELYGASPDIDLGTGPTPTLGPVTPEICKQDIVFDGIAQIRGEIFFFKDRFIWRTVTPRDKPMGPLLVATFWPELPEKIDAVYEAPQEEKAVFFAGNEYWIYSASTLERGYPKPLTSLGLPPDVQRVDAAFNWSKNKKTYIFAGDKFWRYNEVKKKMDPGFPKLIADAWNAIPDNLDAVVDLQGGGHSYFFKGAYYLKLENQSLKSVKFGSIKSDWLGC

Row | Structure (SMILES) | inhibition [1] [%] | IC50 (Rattus norvegicus [2]) [µM] | IC50 (Neutrophil elastase) [µM] | IC50 (Rattus norvegicus [6]) | further results
1 | CC(C)C(NC(=O)c1ccc(S(=O)(=O)NC(=O)c2cc(C(C)(C)C)c(OC(=O)c3cc(C(C)(C)C)c(O)c(C(C)(C)C)c3)c(C(C)(C)C)c2)cc1)C(=O)N1[C@@H](C(=O)NC(C(=O)C(F)(F)F)C(C)C)C[C@H]2CCCC[C@H]21 (stereo not given in full) | 0 |  | 0.046 | Not Active | 
2 | CC(C)C(NC(=O)[C@@H]1CC2CCCCC2N1C(=O)[C@@H](CCCCNC(=O)CCCSc1cc(C(C)(C)C)c(O)c(C(C)(C)C)c1)NC(=O)c1ccc(C(=O)NS(=O)(=O)c2ccc(Cl)cc2)cc1)C(=O)C(F)(F)F (stereo not given in full) | 3 | 2.5 | 0.084 |  | 
3 | CC(C)C(NC(=O)[C@@H]1CC2CCCCC2N1C(=O)[C@@H](CCCCNC(=O)Cc1cc(C(C)(C)C)c(O)c(C(C)(C)C)c1)NC(=O)c1ccc(C(=O)NS(=O)(=O)c2ccc(Cl)cc2)cc1)C(=O)C(F)(F)F (stereo not given in full) | 40 | 2.5 | 0.07 |  | inhibition [7]: 0%; inhibition [3]: 41%; inhibition [4]: 14%; inhibition [5]: 45%
4 | CC(C)C(NC(=O)c1ccc(S(=O)(=O)NC(=O)c2ccc(Cl)c(S(=O)(=O)NC(=O)CSc3cc(C(C)(C)C)c(O)c(C(C)(C)C)c3)c2)cc1)C(=O)N1[C@@H](C(=O)NC(C(=O)C(F)(F)F)C(C)C)C[C@H]2CCCC[C@H]21 (stereo not given in full) |  |  |  |  | IC50 (Stromelysin-1): 38 µM; IC50 (Prolyl endopeptidase): 2 µM; IC50 [8]: 24 µM; IC50 (Interstitial collagenase): 58 µM; IC50 [9]: 19 µM

Continued by falling IC50 (Neutrophil elastase), values first:

Row | inhibition [1] [%] | IC50 (Rattus norvegicus [2]) [µM] | IC50 (Neutrophil elastase) [µM] | IC50 (Rattus norvegicus [6]) | Structure (SMILES) | further results
5 | 66 | 5 | 0.038 |  | CC(C)C(NC(=O)c1ccc(S(=O)(=O)NC(=O)Cc2cc(C(C)(C)C)c(O)c(C(C)(C)C)c2)cc1)C(=O)N1[C@@H](C(=O)NC(C(=O)C(F)(F)F)C(C)C)C[C@H]2CCCC[C@H]21 (stereo not given in full) | inhibition [3]: 65%; inhibition [4]: 3%; inhibition [5]: 26%
6 | 19 |  | 0.036 | Not Active | CCOCOc1c(C(C)(C)C)cc(/C=C/C(=O)NS(=O)(=O)c2ccc(C(=O)NC(C(=O)N3[C@@H](C(=O)NC(C(=O)C(F)(F)F)C(C)C)C[C@H]4CCCC[C@H]43)C(C)C)cc2)cc1C(C)(C)C (stereo not given in full) | 
7 |  |  | 0.032 |  | CC(C)[C@H](NC(=O)OC(C)(C)C)C(=O)N1C2CCC(CC2)[C@@H]1C(=O)N[C@H](C(=O)C(F)(F)F)C(C)C | 
8 |  |  | 0.015 | Not Active | CC(C)C(NC(=O)c1ccc(C(=O)NS(=O)(=O)c2ccc(Cl)cc2)cc1)C(=O)N1C2CCC(CC2)[C@@H]1C(=O)NC(C(=O)C(F)(F)F)C(C)C (stereo not given in full) | 
